Reference: ChEMBL document CHEMBL1629520, “Synthesis and optimization of antitubercular activities in a series of 4-(aryloxy)phenyl cyclopropyl methanols” (Eur J Med Chem, 2010)

Assays:
Format in all cases: functional
[1] = system: Mycobacterium tuberculosis; test: Antitubercular activity against multi drug-resistant Mycobacterium tuberculosis clinical isolate after 30 days by agar microdilution method
[2] = system: Mycobacterium tuberculosis; test: Antitubercular activity against extensively drug-resistant Mycobacterium tuberculosis clinical isolate after 30 days by agar microdilution method
[3] = system: Mycobacterium tuberculosis; test: Antitubercular activity against RMF-resistant Mycobacterium tuberculosis clinical isolate1 after 30 days by agar microdilution method
[4] = system: Mycobacterium tuberculosis; test: Antitubercular activity against RMF-resistant Mycobacterium tuberculosis clinical isolate2 after 30 days by agar microdilution method

Measured: MIC

OC(c1ccc(OCc2ccc(OCCN3CCCCC3)cc2)cc1)C1CC1 (centres undefined)
12.5 µg/mL: [1] | [2] | [3] | [4]
